Laboratory results taken from US10813554B2, “Medical imaging device and methods of use” (Lumicell, Inc., priority 2013, dated 2020).

Assay: Emission intensity of fluorophores exposed to different excitation wavelengths
Type: physicochemical
Conditions: shift in excitation wavelength
Text: FIGS. 10A and 10B present graphs of emission intensities for two separate fluorphores, mPlum and cy5, exposed to different excitation wavelengths. As shown in FIG. 10A the shift in excitation wavelength yielded a decrease in emission intensity of about 96% for fluorphore 1 which was mPlum.

Row | increase in emission intensity | Compound | decrease in emission intensity (FIG. 10A)
1 | about 156% | CCN1/C(=C/C=C/C=C/C2=[N+](CCCCCC(=O)O)c3ccc(S(=O)(=O)O)cc3C2(C)C)C(C)(C)c2cc(S(=O)(=O)[O-])ccc21 [cy5] | –
2 | – | mPlum | about 96%
